The values below come from patent publication US6710086B1, “Protected forms of pharmacologically active agents and uses therefor” (Medinox, Inc., priority 2000, dated 2004).

The assay has as its system adjuvant-induced arthritis. Conditions: high doses: naproxen 10 mg/kg, conjugate 18 mg/kg, oral daily on days 5-8 and 11-14; day 15.

`COc1ccc2cc([C@H](C)C(=O)O)ccc2c1` [Naproxen, (S)-(+)-methoxy-α-methyl-2-naphthaleneacetic acid]: the “Reduction of swelling compared to control” value was “approximately 70%”.
